Data on 49 compounds can be found in patent US7060444B1, “Zone 3 necrosis associated markers and method of use thereof” (CuraGen Corporation, priority 2002, dated 2006).

Data set [1] deals with rat livers.
Excerpt: (§1) Each compound was delivered orally on a daily basis at a high dose (tox dose) and a 1/10 low dose (mode dose) for up to 14 days. Five male rats/dose/time were randomly assigned to sacrifice on days 1, 3, 7, and 14.
(§2) In order to construct in vivo models, the pathology of each sample had to be determined. Pathology was assigned to each liver sample by the pathologists at Bayer's Stillwell, Kans. facility. Criteria for inclusion of a compound into a particular mode included the following: • i.
The test system of data set [2] is liver. To be noted: once converted to reactive metabolites; cited from earlier work.
Data set [3] concerns rat livers. Nature of the data set: Induction of Zone 3 Necrosis in vivo, liver pathology annotation. To be noted: for Zone 3 Necrosis in vivo: Pathology Present: sampled 1, 3, 7, 14 d.
Excerpt: as §1, §2
The test system of data set [4] is liver. Put plainly: In vivo pathology annotation: Hypertrophy. Also noted: species or system rat. To be noted: in vivo compound annotation. From the text: Hypertrophy: Increase in cell size and liver weight. • iv. […] Steatosis: Increase in lipid accumulation or “vacuolar degeneration.” • vii. […] Two approaches were used.
The test system of data set [5] is liver. The note with it: rats, through a sequence of events that begin with necrosis; cited from earlier work.
[6] abbreviates: rat primary hepatocytes, 250 microM.
Setting [7] is: rat primary hepatocytes, 100 microM.
The mark [8] stands for this setting: rat primary hepatocytes, 40 microM.
[9] abbreviates: rat primary hepatocytes, 20 microM.
Setting [10] is: rat primary hepatocytes, 1000 microM.
Where [11] appears, read: rat primary hepatocytes, 2 microM.
The mark [12] stands for this setting: rat primary hepatocytes, 50 microM.

Where two headings read alike, the source gives them in different places.

As for `Brc1cccc(Br)c1` [1,3-Dibromobenzene], in the data set with rat livers [1] (male), the “Zone 3 Necrosis in vivo: Pathology Present” value is reported as 1 d. Further, the “Zone 3 Necrosis Pathology” value with Rat primary hepatocytes (setting [6]) is given as “Present”.

Turning to `Clc1ccc(Cl)cc1` [1,4-dichlorobenzene], the “Zone 3 Necrosis Pathology” value in the data set with Rat primary hepatocytes (setting [7]) is reported as “Absent”.

On to `Cc1cc(N=Nc2ccccc2)ccc1N(C)C` [3-methyl-4-(dimethylamino)azobenzene], for which the “Zone 3 Necrosis Pathology” value in the data set on Rat primary hepatocytes (rat primary hepatocytes, 1.6 microM) is recorded as “Absent”.

For the compound `Cc1ccc2cc3c(ccc4ccccc43)c3c2c1CC3` [3-methylcholanthrene], in the data set on Rat primary hepatocytes (setting [8]), the “Zone 3 Necrosis Pathology” value is “Absent”.

With `CC(=O)Nc1ccc(O)cc1` [Acetaminophen], the “zonal necrosis of the liver produced” value in the data set with liver [2] is on record as “produce mainly zone 3 necrosis”.

As for `CC(=O)Oc1ccccc1C(=O)O` [Aspirin], the “Zone 3 Necrosis Pathology” value in the data set on Rat primary hepatocytes (rat primary hepatocytes, 55.5 microM) is “Absent”.

Regarding `[N-]=[N+]=CC(=O)OC[C@H](N)C(=O)O` [Azaserine], the “Zone 3 Necrosis in vivo: Pathology Present” value with rat livers [3] (High 100 mg/kg (ip)) is reported as 1,3 d. For the same compound, the “Zone 3 Necrosis Pathology” value with Rat primary hepatocytes (rat primary hepatocytes, 500 microM) is given as “Present”.

In the case of `CC[N+](C)(C)Cc1ccccc1Br` [Bretylium], the “Zone 3 Necrosis Pathology” value with Rat primary hepatocytes was “Absent”.

For the compound `Brc1ccccc1` [Bromobenzene], the “Zone 3 Necrosis in vivo: Pathology Present” value in the data set on rat livers [1] (male) is reported as 12, 48 h. The “Zone 3 Necrosis Pathology” value in the data set on Rat primary hepatocytes (rat primary hepatocytes, 3000 microM) is given as “Present”.

Consider `ClC(Cl)(Cl)Cl` [CCl4, carbon tetrachloride], for which the “zonal necrosis of the liver produced” value with liver [2] is “produce mainly zone 3 necrosis”.

In the case of `CO/N=C(\C(=O)N[C@@H]1C(=O)N2C(C(=O)O)=C(COC(N)=O)CS[C@H]12)c1ccco1` [Cefuroxime], the “Zone 3 Necrosis Pathology” value with Rat primary hepatocytes (rat primary hepatocytes, 224 microM) is on record as “Absent”.

For `[Ce+3].[Cl-].[Cl-].[Cl-]` [Cerium (III) Chloride], in the data set on Rat primary hepatocytes (setting [9]), the “Zone 3 Necrosis Pathology” value is on record as “Present”.

On to `ClC1=C(Cl)C2(Cl)C3C(Cl)C(Cl)CC3C1(Cl)C2(Cl)Cl` (stereo not shown) [Chlordane], for which, in the data set on Rat primary hepatocytes (rat primary hepatocytes, 8 microM), the “Zone 3 Necrosis Pathology” value is on record as “Absent”.

Turning to `CCOC(=O)C(C)(C)Oc1ccc(Cl)cc1` [Clofibrate], the hypertrophy in vivo result in the data set with liver [4] was “produced hypertrophy in vivo”. Also, the “Zone 3 Necrosis Pathology” value in the data set on Rat primary hepatocytes (setting [7]) is “Absent”.

Take `Clc1cccc(Cl)c1N=C1NCCN1` [Clonidine]: the “Zone 3 Necrosis Pathology” value in the data set on Rat primary hepatocytes is “Absent”.

As to `O=c1ccc2ccccc2o1` [Coumarin], in the data set on rat livers [3] (High 150 mg/kg/d), the “Zone 3 Necrosis in vivo: Pathology Present” value turned out to be 3 d. In addition, the “Zone 3 Necrosis Pathology” value in the data set with Rat primary hepatocytes (setting [6]) is “Present”.

With `C[C@@H]1C[C@H]2[C@@H]3CCC4=CC(=O)C=C[C@]4(C)[C@@]3(F)[C@@H](O)C[C@]2(C)[C@@]1(O)C(=O)CO` [Dexamethasone], in the data set on Rat primary hepatocytes, the “Zone 3 Necrosis Pathology” value is listed as “Absent”.

In the case of `CCN(CC)N=O` [Diethylnitrosamine], the “Zone 3 Necrosis in vivo: Pathology Present” value in the data set with rat livers [1] is on record as 1, 3, 7 d. Further, in the data set with liver [5], the hepatocellular carcinoma entry is on record as “show evidence of producing hepatocellular carcinoma in rats”. In addition, in the data set with Rat primary hepatocytes (rat primary hepatocytes, 300 microM), the “Zone 3 Necrosis Pathology” value is on record as “Present”.

Take `CN(C)C=O` [Dimethylformamide]: the “Zone 3 Necrosis in vivo: Pathology Present” value in the data set with rat livers [1] (male) worked out at 48 h. The “Zone 3 Necrosis Pathology” value in the data set with Rat primary hepatocytes (rat primary hepatocytes, 5000 microM) is on record as “Present”.

For the compound `CN(C)N=O` [Dimethylnitrosamine], the “Zone 3 Necrosis in vivo: Pathology Present” value with rat livers [1] is on record as 7, 14 d. Further, in the data set with Rat primary hepatocytes (setting [10]), the “Zone 3 Necrosis Pathology” value is on record as “Present”.

Take `c1cc[n+]2c(c1)-c1cccc[n+]1CC2` [Diquat]: in the data set with rat livers [1] (male), the “Zone 3 Necrosis in vivo: Pathology Absent” value was 6, 12, 24, 48 h.

As to `CC(C)N(CCC(C(N)=O)(c1ccccc1)c1ccccn1)C(C)C` (stereo not shown) [Disopyramide], in the data set on Rat primary hepatocytes (rat primary hepatocytes, 3 microM), the “Zone 3 Necrosis Pathology” value is “Absent”.

For `COc1cccc2c1C(=O)c1c(O)c3c(c(O)c1C2=O)C[C@@](O)(C(=O)CO)C[C@@H]3O[C@H]1C[C@H](N)[C@H](O)[C@H](C)O1` [Doxorubicin], in the data set with Rat primary hepatocytes, the “Zone 3 Necrosis Pathology” value is recorded as “Absent”.

In the case of `CCC(=O)O[C@H]1[C@H](O[C@@H]2[C@@H](C)[C@H](O[C@H]3C[C@@](C)(OC)[C@@H](O)[C@H](C)O3)[C@@H](C)C(=O)O[C@H](CC)[C@@](C)(O)[C@H](O)[C@@H](C)C(=O)[C@H](C)C[C@@]2(C)O)O[C@H](C)C[C@@H]1N(C)C.CCCCCCCCCCCCOS(=O)(=O)O` [Erythromycin Estolate (EE), Erythromycin Estolate], the “Zone 3 Necrosis Pathology” value in the data set on Rat primary hepatocytes (setting [9]) was “Absent”.

As for `CCO` [Ethanol], the “Zone 3 Necrosis Pathology” value with Rat primary hepatocytes is given as “Absent”.

For the compound `CCSCC[C@H](N)C(=O)O` [Ethionine], the “Zone 3 Necrosis Pathology” value with Rat primary hepatocytes (setting [10]) is recorded as “Present”.

`CCC1(C)CC(=O)NC1=O` (stereo not shown) [Ethosuximide]: the “Zone 3 Necrosis Pathology” value in the data set with Rat primary hepatocytes (setting [10]) is reported as “Absent”.

As to `OC(c1ccc(Cl)cc1)(c1cncnc1)c1ccccc1Cl` (stereo not shown) [Fenarimol], in the data set on Rat primary hepatocytes (setting [9]), the “Zone 3 Necrosis Pathology” value is recorded as “Absent”.

For `OC(Cn1cncn1)(Cn1cncn1)c1ccc(F)cc1F` [Fluconazole], the “Zone 3 Necrosis Pathology” value in the data set with Rat primary hepatocytes was “Absent”.

Take `CCCC[C@@H](C)[C@@H](OC(=O)C[C@@H](CC(=O)O)C(=O)O)[C@H](C[C@@H](C)C[C@H](O)CCCC[C@@H](O)C[C@H](O)[C@H](C)N)OC(=O)C[C@@H](CC(=O)O)C(=O)O` [Fumonisin B(1)]: the hepatocellular carcinoma entry in the data set on liver [5] is listed as “show evidence of producing hepatocellular carcinoma in rats”.

Consider `NCC1(CC(=O)O)CCCCC1` [Gabapentin], for which the “Zone 3 Necrosis Pathology” value in the data set on Rat primary hepatocytes (setting [11]) is recorded as “Absent”.

For the compound `CC(C)Cc1ccc(C(C)C(=O)O)cc1` (stereo not shown) [Ibuprofen], in the data set with Rat primary hepatocytes (setting [12]), the “Zone 3 Necrosis Pathology” value is “Absent”.

On to `CC(=O)N1CCN(c2ccc(OCC3COC(Cn4ccnc4)(c4ccc(Cl)cc4Cl)O3)cc2)CC1` (stereo not shown) [Ketoconazole], for which the “Zone 3 Necrosis in vivo: Pathology Absent” value with rat livers [3] (male, liver, oral, 10 mg/kg/d) is recorded as 1, 3 d. For the same compound, in the data set with Rat primary hepatocytes (setting [11]), the “Zone 3 Necrosis Pathology” value is given as “Absent”.

With `CCC1(c2ccccc2)NC(=O)N(C)C1=O` (stereo not shown) [Mephenytoin], the “Zone 3 Necrosis Pathology” value in the data set on Rat primary hepatocytes (rat primary hepatocytes, 14.2 microM) is listed as “Absent”.

As to `Nc1cc(N2CCCCC2)nc(N)[n+]1[O-]` [Minoxidil], in the data set on Rat primary hepatocytes (rat primary hepatocytes, 0.166 microM), the “Zone 3 Necrosis Pathology” value was “Absent”.

For `ClC1(Cl)C2(Cl)C3(Cl)C4(Cl)C(Cl)(Cl)C5(Cl)C3(Cl)C1(Cl)C5(Cl)C24Cl` (stereo not shown) [Mirex], the “Zone 3 Necrosis Pathology” value in the data set with Rat primary hepatocytes (setting [12]) was “Absent”.

For `[Mo]` [Molybdenum], in the data set on rat livers [3] (High 500 mg/kg/d), the “Zone 3 Necrosis in vivo: Pathology Present” value is listed as 3 d. The “Zone 3 Necrosis Pathology” value in the data set with Rat primary hepatocytes (setting [12]) is reported as “Present”.

In the case of `C[C@H]1C(=O)O[C@@H]2CCN3CC=C(COC(=O)[C@](C)(O)[C@]1(C)O)[C@H]23` [Monocrotaline], the “Zone 3 Necrosis Pathology” value in the data set with Rat primary hepatocytes (setting [7]) is reported as “Present”.

For `O=NN1CCCCC1` [N-Nitrosopiperidine], the “Zone 3 Necrosis Pathology” value with Rat primary hepatocytes (rat primary hepatocytes, 3200 microM) is recorded as “Present”.

As to `CCCCN(CCCC)N=O` [N-nitrosodibutylamine], the “Zone 3 Necrosis Pathology” value with Rat primary hepatocytes (rat primary hepatocytes, 200 microM) is listed as “Absent”.

As for `O=NN1CCOCC1` [N-nitrosomorpholine], the “Zone 3 Necrosis Pathology” value in the data set with Rat primary hepatocytes (rat primary hepatocytes, 3750 microM) was “Present”.

On to `O=NN(CCO)CCO` [Nitrosodiethanolamine], for which the “Zone 3 Necrosis Pathology” value in the data set with Rat primary hepatocytes (setting [10]) is “Absent”.

For the compound `Oc1c(Cl)c(Cl)c(Cl)c(Cl)c1Cl` [Pentachlorophenol], in the data set on Rat primary hepatocytes (rat primary hepatocytes, 19 microM), the “Zone 3 Necrosis Pathology” value is “Absent”.

As to `COc1cc2nc(N3CCN(C(=O)c4ccco4)CC3)nc(N)c2cc1OC` [Prazosin], the “Zone 3 Necrosis Pathology” value in the data set with Rat primary hepatocytes is recorded as “Absent”.

As for `CC(=O)[C@H]1CC[C@H]2[C@@H]3CC=C4C[C@@H](O)CC[C@]4(C)[C@H]3CC[C@]12C` [Pregnenolone], in the data set with Rat primary hepatocytes (rat primary hepatocytes, 38 microM), the “Zone 3 Necrosis Pathology” value is listed as “Absent”.

Take `c1ccncc1` [Pyridine]: in the data set with rat livers [1] (male), the “Zone 3 Necrosis in vivo: Pathology Present” value is 14 d. In the data set with Rat primary hepatocytes, the “Zone 3 Necrosis Pathology” value is listed as “Present”.

On to `CO[C@H]1/C=C/O[C@@]2(C)Oc3c(C)c(O)c4c(O)c(c(/C=N/N5CCN(C)CC5)c(O)c4c3C2=O)NC(=O)/C(C)=C\C=C\[C@H](C)[C@H](O)[C@@H](C)[C@@H](O)[C@@H](C)[C@H](OC(C)=O)[C@@H]1C` [Rifampicin], for which the “Zone 3 Necrosis Pathology” value in the data set on Rat primary hepatocytes is given as “Absent”.

For the compound `CC(=N)S` [Thioacetamide], in the data set with Rat primary hepatocytes (rat primary hepatocytes, 2000 microM), the “Zone 3 Necrosis Pathology” value was “Present”.

For the compound `NC(=S)c1ccccc1` [Thiobenzamide], in the data set on Rat primary hepatocytes (setting [8]), the “Zone 3 Necrosis Pathology” value is listed as “Present”.
